Our source for the EC50 values is patent publication US8822503B2, “2-pyridone compounds” (Taisho Pharmaceutical Co., Ltd, priority 2009, dated 2014).

This test concerns the target T1, human liver GK (Homo sapiens, UniProt P35557).
T1 construct: GST (glutathione S-transferase) (N); made in house; host or cells: E. coli
T1 sequence (P35557 1-466 isoform P35557-2): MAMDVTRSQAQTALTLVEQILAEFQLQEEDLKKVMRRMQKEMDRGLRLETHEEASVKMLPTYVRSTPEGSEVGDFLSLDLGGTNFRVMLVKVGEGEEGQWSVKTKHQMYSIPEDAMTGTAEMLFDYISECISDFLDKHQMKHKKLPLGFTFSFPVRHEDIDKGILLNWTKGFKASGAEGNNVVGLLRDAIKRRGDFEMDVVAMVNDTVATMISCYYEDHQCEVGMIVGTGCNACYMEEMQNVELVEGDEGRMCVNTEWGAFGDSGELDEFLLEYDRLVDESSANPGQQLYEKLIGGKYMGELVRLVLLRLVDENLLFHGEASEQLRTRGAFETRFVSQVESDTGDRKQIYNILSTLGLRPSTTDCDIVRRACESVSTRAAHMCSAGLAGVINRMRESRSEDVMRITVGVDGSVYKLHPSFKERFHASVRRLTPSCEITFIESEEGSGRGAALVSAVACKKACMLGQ
Kind of test: GK activation test. The settings on record: test compound concentration needed to activate 50% of maximum activation ability; 4 mM 14C-labeled glucose, 2 mM ATP, room temperature, 20 minutes. It counts as biochemical. Summed up: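 GST-tagged human liver GK from E. coli (0.24 μg/well) with 4 mM 14C-glucose, 2 mM ATP in Hepes-KOH pH 7.1, KCl, MgCl2, DTT, 1% DMSO, 20 min room temperature. Labeled glucose 6-phosphate captured on anion resin, eluted and counted. EC50 = concentration giving half of maximal activation.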
`O=C1CC[C@H](/C=C(\c2ccc(S(=O)(=O)C3CC3)cc2)c2ccc(Cl)c(=O)[nH]2)N1` [Example 4-57, 3-Chloro-6-{(E)-1-[4-(cyclopropylsulfonyl)phenyl]-2-[(2R)-5-oxopyrrolidin-2-yl]ethenyl}pyridin-2(1H)-one] came in with an EC50 of 10 to 500 nM. For `O=c1[nH]c(/C(=C/CCCO)c2ccc(SC3CC3)cc2)ccc1C(F)(F)F` [Example 1-98, 6-{(1E)-1-[4-(Cyclopropylsulfanyl)phenyl]-5-hydroxypent-1-en-1-yl}-3-(trifluoromethyl)pyridin-2(1H)-one] the value was 3000 to 10000 nM; for `Cc1ccc(/C(=C/C2CCCC2)c2ccc(SCCCO)c(Cl)c2)[nH]c1=O` [Example 1-22, 6-[(E)-1-{3-Chloro-4-[(3-hydroxypropyl)sulfanyl]phenyl}-2-cyclopentylethenyl]-3-methylpyridin-2(1H)-one], 10 to 500 nM.

As to `CN(C)C(=O)c1ccc(/C(=C\[C@H]2CCC(=O)N2)c2ccc(Cl)c(=O)[nH]2)cc1` [Example 4-161, 4-{(E)-1-(5-Chloro-6-oxo-1,6-dihydropyridin-2-yl)-2-[(2R)-5-oxopyrrolidin-2-yl]ethenyl}-N,N-dimethylbenzamide], the EC50 was 3000 to 10000 nM. The result for `CC(C)c1ccc(/C(=C\[C@H]2CCC(=O)N2)c2ccc(Cl)c(=O)[nH]2)cc1` [Example 4-15, 3-Chloro-6-{(E)-2-[(2R)-5-oxopyrrolidin-2-yl]-1-[4-(propan-2-yl)phenyl]ethenyl}pyridin-2(1H)-one] reads 10 to 500 nM; that for `CC(=O)c1ccc(/C(=C\C2CCOCC2)c2ccc(Cl)c(=O)[nH]2)cc1` [Example 1-112, 6-[(E)-1-(4-Acetylphenyl)-2-(tetrahydro-2H-pyran-4-yl)ethenyl]-3-chloropyridin-2(1H)-one], 3000 to 10000 nM; that for `CC(C)(C)c1ccc(/C(=C\[C@H]2CCC(=O)N2)c2ccc(CCCc3ccccc3)c(=O)[nH]2)cc1` [Example 4-197, 6-{(E)-1-(4-tert-Butylphenyl)-2-[(2R)-5-oxopyrrolidin-2-yl]ethenyl}-3-(3-phenylpropyl)pyridin-2(1H)-one], 500 to 3000 nM. For `CSc1ccc(C(CC2CCCC2)c2ccc(C)c(=O)[nH]2)cc1` (centres unmarked) [Example 2-1, 6-{2-Cyclopentyl-1-[4-(methylsulfanyl)phenyl]ethyl}-3-methylpyridin-2(1H)-one] the value was 500 to 3000 nM; for `Cc1ccc(C(CC2CCC(=O)CC2)c2ccc(S(C)(=O)=O)cc2)[nH]c1=O` (centres unmarked) [Example 2-21, 3-Methyl-6-{1-[4-(methylsulfonyl)phenyl]-2-(4-oxocyclohexyl)ethyl}pyridin-2(1H)-one], 3000 to 10000 nM. The result for `COc1ccc(C(C[C@H]2CCC(=O)N2)c2ccc(C(C)(C)C)cc2)[nH]c1=O` (single isomer, unassigned) [Example 4-244] reads 500 to 3000 nM. Regarding `CSc1ccc(/C(=C\C2CCOCC2)c2ccc(C)c(=O)[nH]2)cc1Cl` [Example 1-55, 6-[(E)-1-[3-Chloro-4-(methylsulfanyl)phenyl]-2-(tetrahydro-2H-pyran-4-yl)ethenyl]-3-methylpyridin-2(1H)-one], the 50% effective concentration (EC50) was in the range of 500 to 3000 nM. For `CCc1ccc(/C(=C\[C@H]2CCC(=O)N2)c2ccc(Cl)c(=O)[nH]2)cc1` [Example 4-14, 3-Chloro-6-{(E)-1-(4-ethylphenyl)-2-[(2R)-5-oxopyrrolidin-2-yl]ethenyl}pyridin-2(1H)-one] the value was 500 to 3000 nM; for `CC(C)(C)c1ccc(/C(=C\[C@H]2CCN(C(=O)C3CCOCC3)C2)c2ccc(Cl)c(=O)[nH]2)cc1` [Example 4-93, 6-{(E)-1-(4-tert-Butylphenyl)-2-[(3R)-1-(tetrahydro-2H-pyran-4-ylcarbonyl)pyrrolidin-3-yl]ethenyl}-3-chloropyridin-2(1H)-one], 3000 to 10000 nM; for `O=C1CC[C@H](/C=C(\c2ccc(Cl)c(Cl)c2)c2ccc(C3CC3)c(=O)[nH]2)N1` [Example 4-101, 3-Cyclopropyl-6-{(E)-1-(3,4-dichlorophenyl)-2-[(2R)-5-oxopyrrolidin-2-yl]ethenyl}pyridin-2(1H)-one], 10 to 500 nM. The result for `CSc1ccc(C(CC2CCOCC2)c2ccc(C)c(=O)[nH]2)cc1` (centres unmarked) [Example 2-18, 3-Methyl-6-{1-[4-(methylsulfanyl)phenyl]-2-(tetrahydro-2H-pyran-4-yl)ethyl}pyridin-2(1H)-one] reads 3000 to 10000 nM; that for `O=C1CC[C@H](/C=C(\c2ccc(OC(F)(F)F)cc2)c2ccc(C3CC3)c(=O)[nH]2)N1` [Example 4-126, 3-Cyclopropyl-6-{(E)-2-[(2R)-5-oxopyrrolidin-2-yl]-1-[4-(trifluoromethoxy)phenyl]ethenyl}pyridin-2(1H)-one], 10 to 500 nM. For `CSc1ccc(/C(=C\C2CCCC2)c2ccc(C(C)C)c(=O)[nH]2)cc1` [Example 1-3, 6-{(E)-2-Cyclopentyl-1-[4-(methylsulfanyl)phenyl]ethenyl}-3-(propan-2-yl)pyridin-2(1H)-one] the value was 10 to 500 nM. `CCN(CC)CCNC(=O)c1ccc(/C(=C\C2CCCC2)c2ccc(C3CC3)c(=O)[nH]2)cc1` [Example 1-45, 4-[(E)-2-Cyclopentyl-1-(5-cyclopropyl-6-oxo-1,6-dihydropyridin-2-yl)ethenyl]-N-[2-(diethylamino)ethyl]benzamide] showed an EC50 of 500 to 3000 nM. The result for `CC(C)(C)c1ccc(/C(=C\[C@H]2CCC(=O)N2)c2ccc(Oc3ccc(Cl)cc3)c(=O)[nH]2)cc1` [Example 4-188, 6-{(E)-1-(4-tert-Butylphenyl)-2-[(2R)-5-oxopyrrolidin-2-yl]ethenyl}-3-(4-chlorophenoxy)pyridin-2(1H)-one] reads 500 to 3000 nM; that for `O=C1CC[C@H](/C=C(\c2ccc(CCCCO)cc2)c2ccc(Cl)c(=O)[nH]2)N1` [Example 4-26, 3-Chloro-6-{(E)-1-[4-(4-hydroxybutyl)phenyl]-2-[(2R)-5-oxopyrrolidin-2-yl]ethenyl}pyridin-2(1H)-one], 500 to 3000 nM; that for `COCCCc1ccc(/C(=C\[C@H]2CCC(=O)N2)c2ccc(Cl)c(=O)[nH]2)cc1` [Example 4-264, 3-Chloro-6-{(E)-1-[4-(3-methoxypropyl)phenyl]-2-[(2R)-5-oxopyrrolidin-2-yl]ethenyl}pyridin-2(1H)-one], 500 to 3000 nM.

`CC(C)(C)c1ccc(C(C[C@H]2CCN(C(=O)C3CC3)C2)c2ccc(Cl)c(=O)[nH]2)cc1` (single isomer, unassigned) [Example 4-96] displayed an EC50 of 10 to 500 nM. For `O=C1CC[C@H](/C=C(/c2ccc(C3CC3)c(=O)[nH]2)c2ccc(F)cc2O)N1` [Example 4-122, 3-Cyclopropyl-6-{(E)-1-(4-fluoro-2-hydroxyphenyl)-2-[(2R)-5-oxopyrrolidin-2-yl]ethenyl}pyridin-2(1H)-one] the value was 10 to 500 nM.

The compound `O=C1CC[C@H](/C=C(\c2ccc(C3CC3)cc2)c2ccc(Cl)c(=O)[nH]2)N1` [Example 4-88, 3-Chloro-6-{(E)-1-(4-cyclopropylphenyl)-2-[(2R)-5-oxopyrrolidin-2-yl]ethenyl}pyridin-2(1H)-one] had an EC50 of 500 to 3000 nM. In turn, `CSc1ccc(C(CC2CCCCC2)c2ccc(C)c(=O)[nH]2)cc1` (centres unmarked) [Example 2-16, 6-{2-Cyclohexyl-1-[4-(methylsulfanyl)phenyl]ethyl}-3-methylpyridin-2(1H)-one] displayed a concentration for a half-maximal effect (EC50) of 500 to 3000 nM. On to `O=c1[nH]c(/C(=C/C2CCCC2)c2ccc(CCCCO)cc2)ccc1C(F)(F)F` [Example 1-38, 6-{(E)-2-Cyclopentyl-1-[4-(4-hydroxybutyl)phenyl]ethenyl}-3-(trifluoromethyl)pyridin-2(1H)-one], for which the 50% effective concentration (EC50) lay in the range of 500 to 3000 nM. `CC(C)c1ccc(/C(=C/[C@H]2CCC(=O)N2)c2ccc(Cl)c(=O)[nH]2)cc1` [Example 4-82, 3-Chloro-6-{(Z)-2-[(2R)-5-oxopyrrolidin-2-yl]-1-[4-(propan-2-yl)phenyl]ethenyl}pyridin-2(1H)-one] returned an EC50 of 3000 to 10000 nM. The result for `Cc1ccc(/C(=C\[C@H]2CCC(=O)N2)c2ccc(C3CC3)c(=O)[nH]2)c(Cl)c1` [Example 4-109, 6-{(E)-1-(2-Chloro-4-methylphenyl)-2-[(2R)-5-oxopyrrolidin-2-yl]ethenyl}-3-cyclopropylpyridin-2(1H)-one] reads 500 to 3000 nM; that for `CSc1ccc(/C(=C\C2CCN(C(C)=O)CC2)c2ccc(C3CC3)c(=O)[nH]2)cc1` [Example 4-42, 6-{(E)-2-(1-Acetylpiperidin-4-yl)-1-[4-(methylsulfanyl)phenyl]ethenyl}-3-cyclopropylpyridin-2(1H)-one], 3000 to 10000 nM; that for `CS(=O)(=O)c1ccc(/C(=C\[C@H]2CCC(=O)C2)c2ccc(C3CC3)c(=O)[nH]2)cc1Cl` [Example 1-72, 6-{(E)-1-[3-Chloro-4-(methylsulfonyl)phenyl]-2-[(1S)-3-oxocyclopentyl]ethenyl}-3-cyclopropylpyridin-2(1H)-one], 10 to 500 nM. For `Cc1cc(C(C[C@H]2CCC(=O)N2)c2ccc(C3CC3)c(=O)[nH]2)ccc1C(F)F` (single isomer, unassigned) [Example 4-232] the value was 3000 to 10000 nM. For `CC(C)(C)c1ccc(/C(=C\CCN2CCCS2(=O)=O)c2ccc(Cl)c(=O)[nH]2)cc1` [Example 6-12, 6-[(1E)-1-(4-tert-Butylphenyl)-4-(1,1-dioxide-1,2-thiazolidin-2-yl)but-1-en-1-yl]-3-chloropyridin-2(1H)-one] the value was 500 to 3000 nM.
